Tests used:
[1] = tested on: SW620 cells; test: MTT assay, SW620; format: cell-based, human; details: 50% growth inhibition
Protocol: (§1) As a first step in assessing their cytotoxic properties, all thioureas of the series were assayed against four human carcinoma cell lines, such as SW480 (primary colon cancer), SW620 (metastatic colon cancer), PC3 (metastatic prostate cancer), and K-562 (chronic myelogenous leukemia), as well as against the normal cell line HaCaT (immortalized human keratinocytes). Table 1 lists the compound concentrations that produced 50% of growth inhibition (IC50, μM), generated by the MTT method, in comparison with two commonly used chemotherapeutic agents, doxorubicin and cisplatin.
(§2) The human primary (SW480), metastatic (SW620) colon cancer, metastatic prostate cancer (PC3), chronic myelogenous leukemia (K-562), and human immortal keratinocyte (HaCaT) cell lines were purchased from the American Type Culture Collection (ATCC, Rockville, MD, USA). The cells were cultured in medium according to protocols (MEM for SW480 and SW620, RPMI 1640 for PC3 and K-562, and DMEM for HaCaT cells), supplemented with 10% FBS, penicillin (100 U/mL) and streptomycin (100 μg/mL), and cultured in a 37 °C/5% CO2 humidified incubator. The cells were cultured until appropriate confluence was achieved (80–90%). Next, they were harvested by treatment with 0.25% trypsin (Gibco Life Technologies, Waltham, MA, USA) excluding the non-adherent K-562 cell line and used for studies.
(§3) Cells without the studied compounds in medium were used as a control.
(§4) The cell viability was assessed by determination of MTT salt [3-(4,5-dimethylthiazol-2-yl)-2,5-diphenyltetrazoliumbromide] conversion by mitochondrial dehydrogenase. The MTT assay was performed as previously described. Alternatively, non-adherent leukemic cells were centrifuged in a microplate centrifuge (400× g, 5 min) during the collection stages. Experiments were repeated three times. Cell viability was presented as a percent of MTT reduction in the treated cells versus the control cells. The number of viable cells cultured without the studied compounds was assumed as 100%. A decreased relative MTT level indicated decreased cell viability. Thiourea compounds with the highest cytotoxic potential assessed by MTT determination (with the lowest IC50) were chosen for subsequent assessments of cytotoxicity mechanisms.

[2] = tested on: SW480 cells; test: MTT assay, SW480; format: cell-based, human; details: 50% growth inhibition
Protocol: as §1, §2, §3, §4

[3] = tested on: K-562 cells; test: MTT assay, K562; format: cell-based, human; details: 50% growth inhibition
Protocol: as §1, §2, §3, §4

[4] = tested on: PC3 cells; test: MTT assay, PC3; format: cell-based; details: Homo sapiens, PC-3, 72 h, 50% growth inhibition
Protocol: as §1, §2, §3, §4

[5] = tested on: HaCaT cells; test: MTT assay, HaCaT normal cells; format: cell-based, human; details: 72 h
Protocol: as §1, §2, §3, §4

[6] = tested on: SW480, SW620, PC3, K-562 cells; test: MTT assay, summary over cancer cell lines; format: cell-based; details: Homo sapiens, 72 h, depending on the tumor line, read-out: IC50 (range or bound over cancer cell lines)
Protocol: as §1, §3, §4

| IC50 ([1]; Homo sapiens, SW-620, 72 h) | IC50 ([2]; Homo sapiens, SW480, 72 h) | IC50 ([3]; Homo sapiens, K562, 72 h) | IC50 [4] | IC50 [6] | melting point | SMILES | IC50 ([5]; Homo sapiens, HaCaT) | IC50 ([1]; 72 h) | IC50 ([2]; 72 h) | IC50 ([3]; 72 h) | IC50 [5] |
| --- | --- | --- | --- | --- | --- | --- | --- | --- | --- | --- | --- |
| 38.2 ± 3.1 µM | 25.3 ± 8.53 µM | 23.8 ± 0.45 µM | 26.7 ± 3.95 µM | 23.8 to 38.2 µM | – | FC(F)(F)c1cccc(NC(=S)NCCc2ccccc2)c1 [Compound 12, 1-(2-phenylethyl)-3-[3-(trifluoromethyl)-phenyl]thiourea] | 55.4 ± 1.08 µM | – | – | – | – |
| 0.3 ± 0.08 µM | 0.8 ± 0.1 µM | 0.2 ± 0.1 µM | 0.3 ± 0.12 µM | – | – | COc1cccc2c1C(=O)c1c(O)c3c(c(O)c1C2=O)C[C@@](O)(C(=O)CO)C[C@@H]3O[C@H]1C[C@H](N)[C@H](O)[C@H](C)O1 [Doxorubicin, reference compound] | 0.3 ± 0.11 µM | – | – | – | – |
| 16.2 ± 4.08 µM | 41.5 ± 4.46 µM | 74.2 ± 6.82 µM | 76.6 ± 4.7 µM | – | – | FC(F)(F)c1cccc(NC(=S)Nc2ccc(Br)cc2)c1 [Compound 11, 1-(4-bromophenyl)-3-[3-(trifluoromethyl)phenyl]thiourea] | 17.2 ± 0.64 µM | – | – | – | – |
| 22.1 ± 4.36 µM | 12.7 to 15.6 µM | 40.3 ± 3.88 µM | 65.9 ± 10.5 µM | – | – | Cc1ccc(Cl)cc1NC(=S)Nc1cccc(C(F)(F)F)c1 [Compound 6, 1-(5-chloro-2-methylphenyl)-3-[3-(trifluoromethyl)phenyl]thiourea] | 14.5 ± 1.08 µM | – | 15.6 ± 4.1 µM | – | – |
| 18.7 ± 5.92 µM | 20.6 ± 3.59 µM | 10.2 to 12.9 µM | 66.2 ± 4.47 µM | – | – | N#Cc1ccc(NC(=S)Nc2cccc(C(F)(F)F)c2)cc1 [Compound 10, 1-(4-cyanophenyl)-3-[3-(trifluoromethyl)-phenyl]thiourea] | 50.1 ± 4.89 µM | – | – | 12.9 ± 4.33 µM | – |

The next lines start with the molecule.

| SMILES | IC50 ([1]; Homo sapiens, SW-620, 72 h) | IC50 ([2]; Homo sapiens, SW480, 72 h) | IC50 ([3]; Homo sapiens, K562, 72 h) | IC50 [4] | IC50 [6] | melting point | IC50 ([5]; Homo sapiens, HaCaT) | IC50 ([1]; 72 h) | IC50 ([2]; 72 h) | IC50 ([3]; 72 h) | IC50 [5] |
| --- | --- | --- | --- | --- | --- | --- | --- | --- | --- | --- | --- |
| N.N.[Cl][Pt][Cl] [Cisplatin, reference compound] | – | – | – | – | – | – | – | 6.7 ± 1.1 µM | 10.4 ± 0.9 µM | 8.2 ± 4.08 µM | 6.3 ± 0.7 µM |
| FC(F)(F)c1cccc(NC(=S)Nc2cccc(Cl)c2Cl)c1 [Compound 4, 1-(2,3-dichlorophenyl)-3-[3-(trifluoromethyl)phenyl]thiourea] | 14 ± 1.73 µM | 22.5 ± 0.1 µM | 35.9 ± 0.07 µM | 10.5 ± 2.52 µM | ≤ 10 µM | – | 13.9 ± 1.7 µM | – | – | – | – |
| Cc1c(Cl)cccc1NC(=S)Nc1cccc(C(F)(F)F)c1 [Compound 5, 1-(3-chloro-2-methylphenyl)-3-[3-(trifluoromethyl)phenyl]thiourea] | 23.2 ± 4.07 µM | 7.3 ± 0.89 µM | 52.5 ± 2.14 µM | 51.8 ± 3.19 µM | ≤ 10 µM | 163 to 165 °C | 55.6 ± 1.74 µM | – | – | – | – |
| FC(F)(F)c1cccc(NC(=S)Nc2ccccc2C(F)(F)F)c1 [Compound 7, 1-[2-(trifluoromethyl)phenyl]-3-[3-(trifluoromethyl)phenyl]thiourea] | 30.1 ± 9.74 µM | > 100 µM | 76.5 ± 4.57 µM | 17.1 ± 0.57 µM | – | 173 to 175 °C | 65.7 ± 3.83 µM | – | – | – | – |
